Columns and labels:
[1] = target: T1, human Y2 receptor (Homo sapiens, UniProt P49146); test: NPY receptor functional assay (cAMP, HEK-CNG cells, ACTOne membrane potential dye); type: cell-based; settings: NPY2R pEC50, HEK-CNG cells; standard PYY(3-36); species (human or rat) not given
T1 sequence (P49146 1-381): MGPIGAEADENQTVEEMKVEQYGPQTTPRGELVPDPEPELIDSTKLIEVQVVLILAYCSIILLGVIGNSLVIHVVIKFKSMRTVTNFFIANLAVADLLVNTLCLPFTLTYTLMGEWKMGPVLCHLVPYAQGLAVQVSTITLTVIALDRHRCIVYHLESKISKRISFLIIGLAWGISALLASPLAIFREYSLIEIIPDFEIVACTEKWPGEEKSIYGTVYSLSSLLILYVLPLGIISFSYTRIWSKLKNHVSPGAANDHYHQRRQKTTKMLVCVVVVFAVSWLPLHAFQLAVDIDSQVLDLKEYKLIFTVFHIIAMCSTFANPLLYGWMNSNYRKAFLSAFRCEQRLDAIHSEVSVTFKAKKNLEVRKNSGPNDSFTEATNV
Outline: (§1)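 HEK-CNG cells stably expressing each human receptor; peptides added in triplicate for 50 minutes at room temperature, with agonism read as decreased isoproterenol-induced membrane potential dye signal (final/initial read).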

[2] = target: T2, human Y5 receptor (Homo sapiens, UniProt Q15761); test: as above; type: cell-based; settings: NPY5R pEC50, HEK-CNG cells; standard NPY; species (human or rat) not given
T2 sequence (Q15761 1-445): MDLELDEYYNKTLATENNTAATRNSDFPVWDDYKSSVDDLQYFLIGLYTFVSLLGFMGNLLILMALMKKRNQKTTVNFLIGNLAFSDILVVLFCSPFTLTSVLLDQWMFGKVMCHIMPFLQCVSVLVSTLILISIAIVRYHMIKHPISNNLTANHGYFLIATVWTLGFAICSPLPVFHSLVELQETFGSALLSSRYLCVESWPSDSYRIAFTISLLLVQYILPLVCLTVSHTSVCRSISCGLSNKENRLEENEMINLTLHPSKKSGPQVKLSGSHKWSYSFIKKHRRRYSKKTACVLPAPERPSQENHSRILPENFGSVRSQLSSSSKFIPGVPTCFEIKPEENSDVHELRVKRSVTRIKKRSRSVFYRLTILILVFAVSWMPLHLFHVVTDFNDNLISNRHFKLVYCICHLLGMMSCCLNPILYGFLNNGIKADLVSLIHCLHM
Outline: as §1

[3] = In vitro metabolic stability in kidney brush border membranes (kBBM); type: in vitro ADME; settings: pH 7.4, human kBBM 50 mcg protein/mL, 1 mcM peptide, 37° C., read-out: hkBBM t½ (converted)
Experimental: In vitro incubations in kidney brush border membrane (kBBM) preparations were used to characterize the ability of peptides to resist degradation by proteases and peptidases in the systemic circulation. kBBM were selected because they contain a high concentration of a diverse set of proteases and peptidases, many of which are present throughout the body.
Brush border membranes from rat and human kidney tissue were prepared via centrifugation and stored at −70° C. Thawed stocks of rat or human kBBM were diluted to the appropriate concentration in 25 mM HEPES buffer (pH 7.4) containing 1% casein and aliquoted into a 96-well plate. The kBBM solutions were pre-warmed for 10 minutes at 37° C. […] The final concentration of kBBM in each incubation was 50 mcg protein/mL. Reactions were maintained at 37° C. in a shaking water bath. […] Quenched samples were centrifuged at 2178×g for 10 min and then a portion of the supernatants were transferred to a clean 96-well plate and diluted 1:1 with water. Samples were analyzed by UPLC-MS/MS.

[4] = In vitro stability in subcutaneous (SC) tissue homogenates; type: in vitro ADME; settings: subcutaneous tissue homogenate, pH 7.4; human SC tissue homogenate 1.0 mg protein/mL, 10 mcM peptide, 37° C.; read-out: (H)SC tissue stability t½ (converted)
Experimental: In vitro incubations in subcutaneous (SC) tissue homogenates were used to characterize the ability of peptides to resist pre-systemic degradation by proteases and peptidases after SC administration. […] Peptides with high SC bioavailability are stable in this assay, while peptides with low SC bioavailability are unstable in this assay.
Human SC tissue was homogenized in cold 25 mM HEPES buffer (pH 7.4, 10-fold volume based on sample weight), and then filtered through a double layer of cheesecloth. The filtrates were aliquoted, flash frozen on a methanol/dry ice bath and stored at −80° C. The protein concentration of each pooled batch was determined using the BCA protein assay. Thawed stocks of human SC tissue homogenates were diluted to 1.0 mg protein/mL in 25 mM HEPES buffer (pH 7.4) and aliquoted into a 96-well plate. The diluted SC homogenates were pre-warmed for 10 minutes at 37° C. […] Reactions were maintained at 37° C. in a shaking water bath. […] Quenched samples were centrifuged at 2178×g for 10 min and then a portion of the supernatants were transferred to a clean 96-well plate and diluted 1:10 with water. Samples were analyzed by UPLC-MS/MS.

Structure (SMILES)	EC50 [1]	EC50 [2]	half-life at 1 mcM [3]	half-life at 10 mcM [4]
CC(C)C[C@H](NC(=O)[C@H](CC(=O)O)NC(=O)[C@H](CCCCNC(=O)CC[C@H](NC(=O)CC[C@H](NC(=O)CCCCCCCCCCCCCCCCCCC(=O)O)C(=O)O)C(=O)O)NC(=O)[C@H](Cc1ccc(O)cc1)NC(=O)[C@H](Cc1ccc(O)cc1)NC(=O)[C@H](CCCNC(=N)N)NC(=O)[C@H](CC(N)=O)NC(=O)[C@H](Cc1c[nH]c2ccccc12)NC(=O)[C@H](CCC(=O)O)NC(=O)[C@H](CCCCN)NC(=O)[C@@H]1CCCN1C(=O)[C@H](CO)NC(=O)[C@H](C)NC(=O)[C@H](CC(=O)O)NC(=O)[C@H](CCC(=O)O)NC(=O)CNC(=O)[C@@H]1CCCN1C(=O)[C@H](CCCCN)NC(=O)[C@H](CCC(=O)O)NC(=O)[C@@H]1CCCN1C(=O)[C@H](CCCCN)NC(=O)[C@@H]1CCCN1)C(=O)N[C@@H](CCCNC(=N)N)C(=O)N[C@@H](Cc1c[nH]cn1)C(=O)N[C@@H](Cc1ccc(O)cc1)C(=O)N[C@@H](CC(C)C)C(=O)N[C@@H](CC(N)=O)C(=O)N[C@@H](Cc1c[nH]c2ccccc12)C(=O)N[C@@H](CC(C)C)C(=O)N[C@H](C(=O)N[C@@H](CCCNC(=N)N)C(=O)N[C@@H](CCC(N)=O)C(=O)N[C@@H](CCCNC(=N)N)C(=O)N[C@@H](Cc1ccccc1)C(N)=O)[C@@H](C)O [Compound A29]	0.0126 nM	1 nM	8.7 h	1.1 h
CC(C)C[C@H](NC(=O)[C@H](CC(=O)O)NC(=O)[C@H](CCCCNC(=O)CC[C@H](NC(=O)CC[C@H](NC(=O)CCCCCCCCCCCCCCCCCCC(=O)O)C(=O)O)C(=O)O)NC(=O)[C@H](Cc1ccc(O)cc1)NC(=O)[C@H](Cc1ccc(O)cc1)NC(=O)[C@H](CCCNC(=N)N)NC(=O)[C@H](CC(=O)O)NC(=O)[C@H](Cc1c[nH]c2ccccc12)NC(=O)[C@H](CCC(=O)O)NC(=O)[C@H](CCCCN)NC(=O)[C@@H]1CCCN1C(=O)[C@H](CO)NC(=O)[C@H](C)NC(=O)[C@H](CC(=O)O)NC(=O)[C@H](CCC(=O)O)NC(=O)CNC(=O)[C@@H]1CCCN1C(=O)[C@H](CCCCN)NC(=O)[C@H](CCC(=O)O)NC(=O)[C@@H]1CCCN1C(=O)[C@H](CCCCN)NC(=O)[C@@H]1CCCN1)C(=O)N[C@@H](CCCNC(=N)N)C(=O)N[C@@H](Cc1c[nH]cn1)C(=O)N[C@@H](Cc1ccc(O)cc1)C(=O)N[C@@H](CC(C)C)C(=O)N[C@@H](CC(N)=O)C(=O)N[C@@H](Cc1c[nH]c2ccccc12)C(=O)N[C@@H](CC(C)C)C(=O)N[C@H](C(=O)N[C@@H](CCCNC(=N)N)C(=O)N[C@@H](CCC(N)=O)C(=O)N[C@@H](CCCNC(=N)N)C(=O)N[C@@H](Cc1ccccc1)C(N)=O)[C@@H](C)O [Compound A34]	0.0631 nM	1.58 nM	6.7 h	4.9 h
CC(C)C[C@H](NC(=O)[C@H](CC(=O)O)NC(=O)[C@H](CCCCN)NC(=O)[C@H](Cc1ccc(O)cc1)NC(=O)[C@H](Cc1ccc(O)cc1)NC(=O)[C@H](CCCNC(=N)N)NC(=O)[C@H](CC(=O)O)NC(=O)[C@H](Cc1c[nH]c2ccccc12)NC(=O)[C@H](CCC(=O)O)NC(=O)[C@H](CCCCN)NC(=O)[C@@H]1CCCN1C(=O)[C@H](CO)NC(=O)[C@H](C)NC(=O)[C@H](CC(=O)O)NC(=O)[C@H](CCC(=O)O)NC(=O)CNC(=O)[C@@H]1CCCN1C(=O)[C@H](CCCCNC(=O)CC[C@H](NC(=O)CC[C@H](NC(=O)CCCCCCCCCCCCCCCCC(=O)O)C(=O)O)C(=O)O)NC(=O)[C@H](CCC(=O)O)NC(=O)[C@@H]1CCCN1C(=O)[C@H](CCCCN)NC(=O)[C@@H]1CCCN1)C(=O)N[C@@H](CCCNC(=N)N)C(=O)N[C@@H](Cc1c[nH]cn1)C(=O)N[C@@H](Cc1ccc(O)cc1)C(=O)N[C@@H](CC(C)C)C(=O)N[C@@H](CC(N)=O)C(=O)N[C@@H](Cc1c[nH]c2ccccc12)C(=O)N[C@@H](CC(C)C)C(=O)N[C@H](C(=O)N[C@@H](CCCNC(=N)N)C(=O)N[C@@H](CCC(N)=O)C(=O)N[C@@H](CCCNC(=N)N)C(=O)N[C@@H](Cc1ccccc1)C(N)=O)[C@@H](C)O [Compound A35]	0.0316 nM	0.794 nM	5.6 h	1.3 h

— patent US12122816B2, “Long acting peptide tyrosine tyrosine (PYY) analogs and methods of use” (Intarcia Therapeutics, Inc., priority 2020, dated 2024)
